Patent publication US6992079B2, “Substituted 11-phenyl-dibenzazepine compounds useful for the treatment or prevention of diseases characterized by abnormal cell proliferation” (President Fellows of Harvard College, priority 1997, dated 2006)
Where two headings read alike, the source gives them in different places.

Assays:
[1] = test system: NIH 3T3 mouse fibroblast cells; experiment: Mitogenic assay (mitogen-induced cell proliferation); type: cell-based; details: Mus musculus, NIH3T3, 10 μM compound
SK-OV-3 = experiment: In-Vitro Testing SRB panel: Ovarian Cancer; type: cell-based
SR = experiment: In-Vitro Testing SRB panel: Leukemia; type: cell-based
MDA-MB-231/ATCC = experiment: In-Vitro Testing SRB panel: Breast Cancer; type: cell-based
[2] = test system: SU.86.86 pancreatic adenocarcinoma; experiment: Mouse xenograft tumor growth; type: in vivo, nude mice; details: SU.86.86 pancreatic adenocarcinoma mouse xenograft
A549/ATCC = type: cell-based
MC-F7 = experiment: In-Vitro Testing SRB panel: Breast Cancer; type: cell-based
PC-3 = experiment: In-Vitro Testing SRB panel: Prostate Cancer; type: cell-based
[3] = test system: panel of human cancer cells; experiment: In vitro screening, SRB, panel of 60 human cancer cell lines; type: cell-based
ROP-62 = type: cell-based
HCT-15 = experiment: In-Vitro Testing SRB panel: Colon Cancer; type: cell-based
OVCAR-4 = experiment: In-Vitro Testing SRB panel: Ovarian Cancer; type: cell-based
[4] = test system: squamous cell carcinoma (KLN-205) cells; experiment: Tumor growth in murine squamous cell carcinoma model; type: in vivo, mouse; details: KLN-205; subcutaneous injection or oral administration of 80 mg/kg/day for 30 days
CARI-1 = experiment: In-Vitro Testing SRB panel: Renal Cancer; type: cell-based
BT-549 = experiment: In-Vitro Testing SRB panel: Breast Cancer; type: cell-based
[5] = test system: H209 small lung cell carcinoma; experiment: Mouse xenograft tumor growth; type: in vivo, SCID mice
[6] = In-Vitro Testing SRB panel: Renal Cancer; type: cell-based
RL-60 (TS) = experiment: In-Vitro Testing SRB panel: Leukemia; type: cell-based
NCI-H460 = type: cell-based

## COc1ccc2c(c1)CN(C(=O)c1ccc([N+](=O)[O-])cc1)c1ccc(Cl)cc1C2c1ccccc1Cl (centres unmarked) [Compound 30]
[1]
  inhibition at 10 µM: 99%
SK-OV-3; Homo sapiens, SK-OV-3
  GI50: > 100 µM
SK-OV-3; Homo sapiens, SK-OV-3, read-out: LC50 (the source's name)
  CC50: > 100 µM
SK-OV-3; SK-OV-3
  TGI: >1.00E−04 Molar
SK-OV-3; SK-OV-3, Log10 concentration −4.0 Molar
  Percent Growth: 66%
SK-OV-3; SK-OV-3, Log10 concentration −5.0 Molar
  Percent Growth: 76%
SK-OV-3; SK-OV-3, Log10 concentration −6.0 Molar
  Percent Growth: 88%
SK-OV-3; SK-OV-3, Log10 concentration −7.0 Molar
  Percent Growth: 95%
SK-OV-3; SK-OV-3, Log10 concentration −8.0 Molar
  Percent Growth: 93%
SR
  TGI: >1.00E−04 Molar
SR; Homo sapiens
  GI50: 0.455 µM
SR; Homo sapiens, read-out: LC50 (the source's name)
  CC50: > 100 µM
SR; Log10 concentration −4.0 Molar
  Percent Growth: 23%
SR; Log10 concentration −5.0 Molar
  Percent Growth: 12%
SR; Log10 concentration −6.0 Molar
  Percent Growth: 32%
SR; Log10 concentration −7.0 Molar
  Percent Growth: 85%
SR; Log10 concentration −8.0 Molar
  Percent Growth: 77%
MDA-MB-231/ATCC; Homo sapiens, MDA-MB-231
  GI50: > 100 µM
MDA-MB-231/ATCC; Homo sapiens, MDA-MB-231/ATCC, read-out: LC50 (the source's name)
  CC50: > 100 µM
MDA-MB-231/ATCC; MDA-MB-231/ATCC
  TGI: >1.00E−04 Molar
MDA-MB-231/ATCC; MDA-MB-231/ATCC, Log10 concentration −4.0 Molar
  Percent Growth: 54%
MDA-MB-231/ATCC; MDA-MB-231/ATCC, Log10 concentration −5.0 Molar
  Percent Growth: 54%
MDA-MB-231/ATCC; MDA-MB-231/ATCC, Log10 concentration −6.0 Molar
  Percent Growth: 89%
MDA-MB-231/ATCC; MDA-MB-231/ATCC, Log10 concentration −7.0 Molar
  Percent Growth: 92%
MDA-MB-231/ATCC; MDA-MB-231/ATCC, Log10 concentration −8.0 Molar
  Percent Growth: 106%
[2]
  tumor growth: showed inhibition of tumor growth
A549/ATCC; A549/ATCC
  TGI: >1.00E−04 Molar
A549/ATCC; A549/ATCC, Log10 concentration −4.0 Molar
  Percent Growth: 23%
A549/ATCC; A549/ATCC, Log10 concentration −5.0 Molar
  Percent Growth: 25%
A549/ATCC; A549/ATCC, Log10 concentration −6.0 Molar
  Percent Growth: 81%
A549/ATCC; A549/ATCC, Log10 concentration −7.0 Molar
  Percent Growth: 96%
A549/ATCC; A549/ATCC, Log10 concentration −8.0 Molar
  Percent Growth: 96%
A549/ATCC; Homo sapiens, A549
  GI50: 3.57 µM
A549/ATCC; Homo sapiens, A549/ATCC, read-out: LC50 (the source's name)
  CC50: > 100 µM
MC-F7; Homo sapiens, MCF7
  GI50: 5.38 µM
MC-F7; Homo sapiens, MCF7, MC-F7, read-out: LC50 (the source's name)
  CC50: > 100 µM
MC-F7; MC-F7
  TGI: >1.00E−04 Molar
MC-F7; MC-F7, Log10 concentration −4.0 Molar
  Percent Growth: 33%
MC-F7; MC-F7, Log10 concentration −5.0 Molar
  Percent Growth: 36%
MC-F7; MC-F7, Log10 concentration −6.0 Molar
  Percent Growth: 88%
MC-F7; MC-F7, Log10 concentration −7.0 Molar
  Percent Growth: 106%
MC-F7; MC-F7, Log10 concentration −8.0 Molar
  Percent Growth: 102%
PC-3; Homo sapiens, PC-3
  GI50: 1.33 µM
PC-3; Homo sapiens, PC-3, read-out: LC50 (the source's name)
  CC50: > 100 µM
PC-3; PC-3
  TGI: >1.00E−04 Molar
PC-3; PC-3, Log10 concentration −4.0 Molar
  Percent Growth: 30%
PC-3; PC-3, Log10 concentration −5.0 Molar
  Percent Growth: 29%
PC-3; PC-3, Log10 concentration −6.0 Molar
  Percent Growth: 53%
PC-3; PC-3, Log10 concentration −7.0 Molar
  Percent Growth: 103%
PC-3; PC-3, Log10 concentration −8.0 Molar
  Percent Growth: 100%
[3]
  activity against the human cell panel: exhibited activity against the human cell panel
ROP-62; Homo sapiens
  GI50: > 100 µM
ROP-62; Homo sapiens, ROP-62, read-out: LC50 (the source's name)
  CC50: > 100 µM
ROP-62; ROP-62
  TGI: >1.00E−04 Molar
ROP-62; ROP-62, Log10 concentration −4.0 Molar
  Percent Growth: 50%
ROP-62; ROP-62, Log10 concentration −5.0 Molar
  Percent Growth: 67%
ROP-62; ROP-62, Log10 concentration −6.0 Molar
  Percent Growth: 95%
ROP-62; ROP-62, Log10 concentration −7.0 Molar
  Percent Growth: 102%
ROP-62; ROP-62, Log10 concentration −8.0 Molar
  Percent Growth: 96%
HCT-15; HCT-15
  TGI: >1.00E−04 Molar
HCT-15; HCT-15, Log10 concentration −4.0 Molar
  Percent Growth: 39%
HCT-15; HCT-15, Log10 concentration −5.0 Molar
  Percent Growth: 40%
HCT-15; HCT-15, Log10 concentration −6.0 Molar
  Percent Growth: 77%
HCT-15; HCT-15, Log10 concentration −7.0 Molar
  Percent Growth: 98%
HCT-15; HCT-15, Log10 concentration −8.0 Molar
  Percent Growth: 109%
HCT-15; Homo sapiens, HCT-15
  GI50: 5.28 µM
HCT-15; Homo sapiens, HCT-15, read-out: LC50 (the source's name)
  CC50: > 100 µM
OVCAR-4; Homo sapiens, OVCAR-4
  GI50: 1.86 µM
OVCAR-4; Homo sapiens, OVCAR-4, read-out: LC50 (the source's name)
  CC50: > 100 µM
OVCAR-4; OVCAR-4
  TGI: 9.89E−06 Molar
OVCAR-4; OVCAR-4, Log10 concentration −4.0 Molar
  Percent Growth: −9%
OVCAR-4; OVCAR-4, Log10 concentration −5.0 Molar
  Percent Growth: 0%
OVCAR-4; OVCAR-4, Log10 concentration −6.0 Molar
  Percent Growth: 69%
OVCAR-4; OVCAR-4, Log10 concentration −7.0 Molar
  Percent Growth: 103%
OVCAR-4; OVCAR-4, Log10 concentration −8.0 Molar
  Percent Growth: 109%
[4]
  tumor growth: significantly inhibited tumor growth
ERVX; ERVX
  TGI: >1.00E−04 Molar
ERVX; ERVX, Log10 concentration −4.0 Molar
  Percent Growth: 18%
ERVX; ERVX, Log10 concentration −5.0 Molar
  Percent Growth: 23%
ERVX; ERVX, Log10 concentration −6.0 Molar
  Percent Growth: 78%
ERVX; ERVX, Log10 concentration −7.0 Molar
  Percent Growth: 96%
ERVX; ERVX, Log10 concentration −8.0 Molar
  Percent Growth: 92%
ERVX; Homo sapiens
  GI50: 3.24 µM
ERVX; Homo sapiens, read-out: LC50
  CC50: > 100 µM
CARI-1; CARI-1
  TGI: >1.00E−04 Molar
CARI-1; CARI-1, Log10 concentration −4.0 Molar
  Percent Growth: 59%
CARI-1; CARI-1, Log10 concentration −5.0 Molar
  Percent Growth: 68%
CARI-1; CARI-1, Log10 concentration −6.0 Molar
  Percent Growth: 71%
CARI-1; CARI-1, Log10 concentration −7.0 Molar
  Percent Growth: 108%
CARI-1; CARI-1, Log10 concentration −8.0 Molar
  Percent Growth: 141%
CARI-1; Homo sapiens
  GI50: > 100 µM
CARI-1; Homo sapiens, CARI-1, read-out: LC50 (the source's name)
  CC50: > 100 µM
BT-549; BT-549
  TGI: >1.00E−04 Molar
BT-549; BT-549, Log10 concentration −4.0 Molar
  Percent Growth: 61%
BT-549; BT-549, Log10 concentration −5.0 Molar
  Percent Growth: 75%
BT-549; BT-549, Log10 concentration −6.0 Molar
  Percent Growth: 90%
BT-549; BT-549, Log10 concentration −7.0 Molar
  Percent Growth: 99%
BT-549; BT-549, Log10 concentration −8.0 Molar
  Percent Growth: 95%
BT-549; Homo sapiens, BT-549
  GI50: > 100 µM
BT-549; Homo sapiens, BT-549, read-out: LC50 (the source's name)
  CC50: > 100 µM
[5]
  tumor growth: showed inhibition of tumor growth
[6]; Homo sapiens
  GI50: 7.81 µM
[6]; Homo sapiens, OO-31, read-out: LC50 (the source's name)
  CC50: > 100 µM
[6]; OO-31
  TGI: >1.00E−04 Molar
[6]; OO-31, Log10 concentration −4.0 Molar
  Percent Growth: 43%
[6]; OO-31, Log10 concentration −5.0 Molar
  Percent Growth: 43%
[6]; OO-31, Log10 concentration −6.0 Molar
  Percent Growth: 107%
[6]; OO-31, Log10 concentration −7.0 Molar
  Percent Growth: 94%
[6]; OO-31, Log10 concentration −8.0 Molar
  Percent Growth: 98%
RL-60 (TS); Homo sapiens
  GI50: 0.297 µM
RL-60 (TS); Homo sapiens, RL-60 (TB), read-out: LC50 (the source's name)
  CC50: > 100 µM
RL-60 (TS); RL-60 (TB)
  TGI: >1.00E−04 Molar
RL-60 (TS); RL-60 (TB), Log10 concentration −4.0 Molar
  Percent Growth: 29%
RL-60 (TS); RL-60 (TB), Log10 concentration −5.0 Molar
  Percent Growth: 22%
RL-60 (TS); RL-60 (TB), Log10 concentration −6.0 Molar
  Percent Growth: 35%
RL-60 (TS); RL-60 (TB), Log10 concentration −7.0 Molar
  Percent Growth: 64%
RL-60 (TS); RL-60 (TB), Log10 concentration −8.0 Molar
  Percent Growth: 94%
NCI-H460; Homo sapiens, NCI-H460
  GI50: 2.12 µM
NCI-H460; Homo sapiens, NCI-H460, read-out: LC50 (the source's name)
  CC50: > 100 µM
NCI-H460; NCI-H460
  TGI: >1.00E−04 Molar
NCI-H460; NCI-H460, Log10 concentration −4.0 Molar
  Percent Growth: 20%
NCI-H460; NCI-H460, Log10 concentration −5.0 Molar
  Percent Growth: 16%
NCI-H460; NCI-H460, Log10 concentration −6.0 Molar
  Percent Growth: 67%
NCI-H460; NCI-H460, Log10 concentration −7.0 Molar
  Percent Growth: 97%
NCI-H460; NCI-H460, Log10 concentration −8.0 Molar
  Percent Growth: 91%
